Reference: PubChem BioAssay AID1919000 (Molecular Pharmacology Branch, DTP, NCI, 2023)
Where “and” joins values, the source holds several entries; their conditions need not be identical. Equal entries are not always repeated.

Test system: 653999-131-R-J2-PDC complex spheroids, growth % test/control
Assay: Anticancer human tumor 653999-131-R-J2-PDC patient-derived lung adenocarcinoma cell line growth inhibition [AhR]
Conditions: for viability, T/C: stronger effect = lower value
Procedure, shortened: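 Agents were dosed in half-log steps down from roughly clinical Cmax, or from 10 microM where Cmax was unknown, alone and with AhR antagonists. Read-out: percent test/control growth of tumor spheroids containing HUVEC and MSC stromal cells.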

[1] = curve of first compound, second compound 0.1 µM
[2] = curve of first compound, second compound 0.316 µM
[3] = curve of first compound, second compound 1 µM
[4] = curve of first compound, second compound 3.16 µM
[5] = curve of first compound, second compound 10 µM
[6] = second compound 0.1 µM, first compound 0.0316 µM
[7] = second compound 0.1 µM, first compound 0.1 µM
[8] = second compound 0.1 µM, first compound 0.316 µM
[9] = second compound 0.1 µM, first compound 1 µM
[10] = second compound 0.1 µM, first compound 3.16 µM
[11] = second compound 0.1 µM, first compound 10 µM
[12] = second compound 0.316 µM, first compound 0.0316 µM
[13] = second compound 0.316 µM, first compound 0.1 µM
[14] = second compound 0.316 µM, first compound 0.316 µM
[15] = second compound 0.316 µM, first compound 1 µM
[16] = second compound 0.316 µM, first compound 3.16 µM
[17] = second compound 0.316 µM, first compound 10 µM
[18] = second compound 1 µM, first compound 0.0316 µM
[19] = second compound 1 µM, first compound 0.1 µM
[20] = second compound 1 µM, first compound 0.316 µM
[21] = second compound 1 µM, first compound 1 µM
[22] = second compound 1 µM, first compound 3.16 µM
[23] = second compound 1 µM, first compound 10 µM
[24] = second compound 3.16 µM, first compound 0.0316 µM
[25] = second compound 3.16 µM, first compound 0.1 µM
[26] = second compound 3.16 µM, first compound 0.316 µM
[27] = second compound 3.16 µM, first compound 1 µM
[28] = second compound 3.16 µM, first compound 3.16 µM
[29] = second compound 3.16 µM, first compound 10 µM
[30] = second compound 10 µM, first compound 0.0316 µM
[31] = second compound 10 µM, first compound 0.1 µM
[32] = second compound 10 µM, first compound 0.316 µM
[33] = second compound 10 µM, first compound 1 µM
[34] = second compound 10 µM, first compound 3.16 µM
[35] = second compound 10 µM, first compound 10 µM
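Further: spheroids exposed to agents for seven days.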
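Wherever viability, T/C is given: 100% = DMSO vehicle control viability.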

IC50 [1] [nM]	IC50 [2] [nM]	IC50 [3] [nM]	IC50 [4] [nM]	IC50 [5] [nM]	Compound	viability, T/C [6] [%]	viability, T/C [7] [%]	viability, T/C [8] [%]	viability, T/C [9] [%]	viability, T/C [10] [%]	viability, T/C [11] [%]	viability, T/C [12] [%]	viability, T/C [13] [%]	viability, T/C [14] [%]	viability, T/C [15] [%]	viability, T/C [16] [%]	viability, T/C [17] [%]	viability, T/C [18] [%]	viability, T/C [19] [%]	viability, T/C [20] [%]	also measured
> 10000	> 10000	> 10000	> 10000	> 10000	NS(=O)(=O)OCC1CC(n2ccc3c(NC4CCc5ccccc54)ncnc32)CC1O (configuration not stated) + CC(CO)NC(=O)c1cc(-c2ccc(Cl)cc2)nn(-c2cnn(C)c2)c1=O	108	99.8	109	98.9	63.4	51	108	98.7	101	80.4	53.1	54.5	101	111	114	viability, T/C [21]: 53.8%; viability, T/C [22]: 53.4%; viability, T/C [23]: 52.3%; viability, T/C [24]: 101%; viability, T/C [25]: 102%; viability, T/C [26]: 99.9%; viability, T/C [27]: 54.5%; viability, T/C [28]: 52%; viability, T/C [29]: 58.4%; viability, T/C [30]: 97.9%; viability, T/C [31]: 96.9%; viability, T/C [32]: 93.5%; viability, T/C [33]: 54.1%; viability, T/C [34]: 51%; viability, T/C [35]: 56.9%
					COc1cc(C2c3cc4c(cc3C(OC3OC5COC(C)OC5C(O)C3O)C3COC(=O)C23)OCO4)cc(OC)c1O (configuration not stated)																viability, T/C (compound 0.0316 µM): 99.2% and 89.8% and 87.8%; viability, T/C (compound 0.1 µM): 79.3% and 77.8% and 77.9%; viability, T/C (compound 0.316 µM): 61.9% and 67.7% and 69.8%; viability, T/C (compound 1 µM): 49.1% and 55.2% and 50.4%; viability, T/C (compound 3.16 µM): 39.3% and 43.3% and 43.5%; viability, T/C (compound 10 µM): 29.4% and 25.6% and 27.5%; IC50 (curve of compound): 924 nM and 1560 nM and 1450 nM
2500	3460	2270	1900	3480	Nc1ccccc1NC(=O)c1ccc(CNC(=O)OCc2cccnc2)cc1 + Cc1ccccc1N=Nc1ccc(NC(=O)c2ccnn2C)c(C)c1	91.9	83	79.2	73.7	43.4	12.3	91.4	83.5	69	64.9	62.3	14.1	83.8	85.1	70.4	viability, T/C [21]: 58.5%; viability, T/C [22]: 50.4%; viability, T/C [23]: 13.9%; viability, T/C [24]: 89.3%; viability, T/C [25]: 84.7%; viability, T/C [26]: 70.2%; viability, T/C [27]: 54.4%; viability, T/C [28]: 50.5%; viability, T/C [29]: 13.3%; viability, T/C [30]: 86.4%; viability, T/C [31]: 81.6%; viability, T/C [32]: 71.4%; viability, T/C [33]: 59.6%; viability, T/C [34]: 63.1%; viability, T/C [35]: 13.4%
